Assay results: PMC5727842, “Antioxidant and Antidiabetic Effects of Flavonoids: A Structure-Activity Relationship Based Study” (BioMed Research International, 2017)
pIC50: −log10 of the molar value.

Key:
[1] = Rapid screening of radical scavenging activity by dot blot assay (DPPH staining); settings: silica sheet stained with DPPH in MeOH, dilutions from 1000 μg/mL
Protocol: An aliquot (20 μL) of each dilution of each group was carefully loaded on a […] TLC plate and allowed to dry for 10 min. Drops of each sample were loaded in the order of decreased concentration along the 16 columns. The staining of the silica plate was based on the procedure of Soler-Rivas et al.. […] The intensity of the yellow color depends upon the amount and nature of radical scavenger present in the flavonoids.

[2] = DPPH radical scavenging assay; settings: 30 min, 517 nm, mean ± SEM (n = 3)
Protocol: Each sample's stock solution was diluted to final concentrations of 1000–0.4889 μg/mL in MeOH. A total of 1 mL of a 0.3 mM DPPH methanolic solution was added to 2.5 mL of sample solution of different concentrations and allowed to react at room temperature. After 30 min, the absorbance (Abs) values were measured at 517 nm with a microplate reader (Tecan NanoQuant Infinite M200, Switzerland) and converted into the percentage antioxidant activity using the following equation described previously: (1) % antioxidant activity=100−Abssample−Abssample blank/Abscontrol−Abscontrol blank×100. MeOH + compound solution was used as a blank, while DPPH solution plus MeOH was used as a negative control. The positive controls were DPPH solution plus 1 mM ascorbic acid. The IC50 values were calculated by linear regression of plots. The average percent of scavenging capacity was taken from three replicates.

[3] = ABTS+ radical scavenging assay; settings: 734 nm, mean ± SEM (n = 3)
Protocol: An improved ABTS^+ radical decolorization assay was carried out involving direct production of the blue/green ABTS^+ chromophore through the reaction between ABTS and potassium persulfate. Addition of antioxidant to the preformed radical cation reduces it to ABTS to an extent on a time scale depending on the antioxidant activity, the concentration of the antioxidant, and the duration of the reaction. 1 ml ABTS was dissolved in water to make 7 mM concentration of the resultant solution. […] The resultant reaction mixture was allowed to stand in the dark at room temperature for 12–16 h before being used. The ABTS^+ radical solution was diluted with MeOH to an absorbance of 0.7 (±0.02) at 734 nm. Then, 100 μl of sample at various concentrations (1000–0.4889 μg/mL) was mixed with 100 μL of diluted ABTS^+ radical. Each concentration was analyzed in triplicate and the percentage decrease of absorbance at 734 nm with a microplate reader (Tecan NanoQuant Infinite M200, Switzerland) was calculated for each point and the antioxidant capacity of the tested compounds was expressed as percent inhibition (%). The radical scavenging activity of the compounds was measured according to the following equation [29]:(2) % inhibition=Acontrol−Asample/Acontrol×100. IC50 values were calculated by linear regression of plots, and the average percent of scavenging capacity was taken from three replicates. Trolox was used as a standard in comparison for the determination of the antioxidant activity of the flavonoids.

[4] = target: T1, xanthine oxidase from buttermilk (Bos taurus, UniProt P80457); assay: Xanthine oxidase inhibitory assay (XOI); format: biochemical; settings: for xanthine oxidase inhibitory effect (in words): discussion
T1 construct: 0.3 U/mL enzymes (xanthine oxidase from buttermilk); purchased Sigma-Aldrich (Singapore); host or cells: buttermilk (natural source)
T1 sequence (P80457 whole entry): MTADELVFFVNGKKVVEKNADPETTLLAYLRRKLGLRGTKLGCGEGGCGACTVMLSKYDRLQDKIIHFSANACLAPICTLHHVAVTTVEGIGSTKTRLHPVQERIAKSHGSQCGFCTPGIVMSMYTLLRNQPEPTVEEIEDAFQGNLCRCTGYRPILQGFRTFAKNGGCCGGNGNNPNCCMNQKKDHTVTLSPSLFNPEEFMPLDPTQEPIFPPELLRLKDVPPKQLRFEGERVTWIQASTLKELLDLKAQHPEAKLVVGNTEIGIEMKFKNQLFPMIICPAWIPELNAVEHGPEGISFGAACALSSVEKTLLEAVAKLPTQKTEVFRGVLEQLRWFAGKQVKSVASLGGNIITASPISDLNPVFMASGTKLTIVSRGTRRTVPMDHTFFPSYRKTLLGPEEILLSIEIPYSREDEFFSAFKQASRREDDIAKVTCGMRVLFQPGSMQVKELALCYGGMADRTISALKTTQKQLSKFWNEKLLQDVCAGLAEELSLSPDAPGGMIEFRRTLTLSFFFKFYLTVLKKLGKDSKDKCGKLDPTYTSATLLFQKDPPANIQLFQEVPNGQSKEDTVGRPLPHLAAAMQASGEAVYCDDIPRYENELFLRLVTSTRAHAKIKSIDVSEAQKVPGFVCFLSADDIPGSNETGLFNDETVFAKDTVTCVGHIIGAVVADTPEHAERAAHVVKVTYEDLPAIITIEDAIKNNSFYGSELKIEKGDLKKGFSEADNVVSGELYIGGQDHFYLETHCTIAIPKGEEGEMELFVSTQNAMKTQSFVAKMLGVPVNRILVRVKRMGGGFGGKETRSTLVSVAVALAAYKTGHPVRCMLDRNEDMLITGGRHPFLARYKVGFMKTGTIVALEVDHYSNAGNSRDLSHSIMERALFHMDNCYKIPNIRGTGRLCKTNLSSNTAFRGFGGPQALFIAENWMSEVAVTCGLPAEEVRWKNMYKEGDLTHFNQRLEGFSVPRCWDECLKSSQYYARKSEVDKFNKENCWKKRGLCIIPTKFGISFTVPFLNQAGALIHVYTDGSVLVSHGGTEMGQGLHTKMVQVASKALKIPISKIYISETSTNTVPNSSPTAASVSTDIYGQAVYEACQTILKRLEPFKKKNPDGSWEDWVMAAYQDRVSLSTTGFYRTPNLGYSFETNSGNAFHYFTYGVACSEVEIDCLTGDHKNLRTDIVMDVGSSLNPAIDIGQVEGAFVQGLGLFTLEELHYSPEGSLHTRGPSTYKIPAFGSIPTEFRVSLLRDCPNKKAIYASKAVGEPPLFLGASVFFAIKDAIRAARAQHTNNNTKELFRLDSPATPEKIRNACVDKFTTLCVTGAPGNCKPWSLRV
Protocol: XO catalyzes the oxidation of hypoxanthine to xanthine and subsequently to uric acid. The inhibition of XO reduces both vascular oxidative stress and circulating levels of uric acid. This assay is based on the fact that the superoxide anions are generated by the xanthine. The xanthine oxidase inhibitory activity was measured spectrophotometrically (Tecan NanoQuant Infinite M200, Switzerland) at 295 nm under aerobic condition with slight modification. The reaction mixture contained 50 mM phosphate buffer (pH 7.5), 0.15 mM xanthine (substrate), and 0.3 U/mL enzymes (xanthine oxidase from buttermilk). Samples were prepared by dissolving 1 mg in 5% DMSO in MeOH which gives sample concentration of 144.0 μg/mL in assay. […] The absorption increment at 295 nm indicates the formation of […] of uric acid/min at 25°C. […] All determination was done in triplicate and half maximal concentration (IC50) values were calculated from the percentage of inhibition. XO inhibition activity was expressed as the percentage inhibition of XO as follows:(3) % of inhibition=AbsA−B−C−D/AbsA−B×100, where A is the negative control with B as the blank of A which is without the enzyme and the sample while C is the activity of the sample with enzyme with D as the blank of the sample without enzyme.

[5] = Ferric reducing antioxidant power (FRAP); settings: for FRAP (AAE μg): ascorbic acid equivalent, mean ± SEM (n = 3), Table 2
Protocol: This assay was based on the reduction of the ferric tripyridyltriazine (Fe III-TPTZ) complex to the ferrous ion (Fe II) at a low pH forming an intense blue color. In the FRAP assay, compounds that are rich in antioxidant effect exert their action by breaking the free radical chain by donating a hydrogen atom. Briefly, ferric reducing antioxidant power (FRAP) reagent (2.5 mL of a 10 mM TPTZ solution in 40 mM HCl, 2.5 mL of 20 mM FeCl3, and 25 mL of 0.1 M acetate buffer pH 3.6) was prepared and incubated for 10 min at 37°C. Then 20 μL of each compound and ascorbic acid (standard) and 40 μL of FRAP reagent were added to 140 μL of distilled water in a 96-well plate producing a blue-colored solution. The solutions were kept at room temperature for 20 min in the dark and then measured at 593 nm with a microplate reader (Tecan, Switzerland) using a reagent blank composed of 40 μL of FRAP reagents in 200 μL of distilled water. A calibration curve was prepared with a serial dilution of ascorbic acid (standard). The total antioxidant capacity was calculated by interpolating the measured absorbance of the calibration curve and expressed as ascorbic acid equivalents. The results were corrected for dilution and expressed as AAE μg of ascorbic acid/g.

DPP-4 = target: T2, DPP-4 (Homo sapiens, UniProt P27487); assay: Dipeptidyl peptidase IV (DPP-4) inhibitory assay; format: biochemical; settings: Table 3; mean ± SEM (n = 3); NA: not active
T2 construct: purchased Cayman (Michigan, USA)
T2 sequence (P27487 whole entry): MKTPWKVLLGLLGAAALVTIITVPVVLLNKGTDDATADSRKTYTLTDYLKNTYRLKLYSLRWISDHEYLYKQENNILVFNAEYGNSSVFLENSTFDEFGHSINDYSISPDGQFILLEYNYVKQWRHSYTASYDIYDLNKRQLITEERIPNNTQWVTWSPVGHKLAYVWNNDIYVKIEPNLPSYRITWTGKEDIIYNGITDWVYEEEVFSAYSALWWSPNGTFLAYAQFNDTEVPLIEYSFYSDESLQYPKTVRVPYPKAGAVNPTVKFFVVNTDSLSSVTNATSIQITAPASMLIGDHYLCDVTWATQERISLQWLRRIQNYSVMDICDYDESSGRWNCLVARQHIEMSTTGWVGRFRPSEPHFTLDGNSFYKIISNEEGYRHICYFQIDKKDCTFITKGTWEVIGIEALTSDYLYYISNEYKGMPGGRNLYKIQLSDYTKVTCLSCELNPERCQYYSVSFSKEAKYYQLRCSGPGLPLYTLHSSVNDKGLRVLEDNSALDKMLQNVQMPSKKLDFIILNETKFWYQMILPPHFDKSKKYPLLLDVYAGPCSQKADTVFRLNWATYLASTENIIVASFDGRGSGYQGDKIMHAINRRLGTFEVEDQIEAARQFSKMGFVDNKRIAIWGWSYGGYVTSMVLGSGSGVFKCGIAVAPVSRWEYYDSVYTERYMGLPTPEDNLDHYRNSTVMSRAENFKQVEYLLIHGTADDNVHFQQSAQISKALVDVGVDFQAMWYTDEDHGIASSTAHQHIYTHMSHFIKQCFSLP
Protocol: Dipeptidyl peptidase (IV) inhibitors work by inhibiting the action of this enzyme, thereby prolonging the activity of incretins that play an important role in insulin secretion and blood glucose control regulation. DPP-4 inhibitory assay was performed as per the standard method (Cayman, USA). Firstly, 1 mg of sample was dissolved in 10% of DMSO and MeOH as the stock solution. For initial activity (100%), 10 μL of MeOH, 30 μL of diluted assay buffer, and 10 μL of diluted DPP-4 (Cayman, USA) were added to 96-well microplate. […] For background well, 10 μL of MeOH and 40 μL of diluted assay buffer were added. Then, 10 μL of prepared sample and 30 μL of diluted assay buffer were added with 10 μL of diluted DPP-4. After that, 50 μL of substrate solution was added to all wells to initiate the reaction and further incubated in the dark at 37°C for 30 min. Finally, plate was read at 360 nm of excitation wavelength and 465 nm of emission wavelength using fluorescence microplate reader (Perkin Elmer, Germany). All determinations were done in triplicate and half maximal concentration (IC50) values were calculated from the percentage of inhibition based on the linear regression analysis. The equation given below was applied to calculate the inhibitory activity (%):(5) Inhibitory activity%=Initial Activity−Sample/Initial Activity×100%.
For DPP-4 inhibitory assay, the reaction is based on the cleavage of the peptide bond by DPP releasing the free Gly-Pro-aminomethylcoumarin group, a fluorogenic substrate resulting in fluorescence excitation and emission.

[6] = target: α-glucosidase from Saccharomyces cerevisiae; assay: α-Glucosidase inhibitory assay; format: biochemical; settings: Table 3; mean ± SEM (n = 3); NA: not active
Protocol: α-Glucosidase inhibitory activity of the flavonoids was carried out according to the standard method with minor modification. […] A solution of 30 mM phosphate buffer (pH 6.5) was used to prepare stock solution of the sample to form a final concentration of 160 μg/mL. Then, 10 μL/well of sample was mixed with 15 μL/well of α-glucosidase from Saccharomyces cerevisiae (Megazyme, Ireland). 50 mM buffer (pH 6.5) was used to prepare the enzyme solution. Then, 115 μL/well of 30 mM buffer (pH 6.5) was added and incubated for 5 min at room temperature. Then, 75 μL/well of PNP-glucoside was added to initiate reaction and incubated at room temperature for 15 min. Finally, about 50 μL glycine at pH 10 was added to stop the reaction. The final volume of 250 μL of compound, positive control, enzyme, 30 mM buffer, and substrate was located in 96-well microplate. The absorbance (Abs) was measured using microplate reader (Tecan NanoQuant Infinite M200, Switzerland) at 405 nm to represent the amount of p-nitrophenol released from PNP-glucoside. […] The equation given below was used to calculate the inhibitory activity (%):(4) Inhibitory activity%=Abs control−Abs sample/Abs control×100%.
Tested on yeast α-glycosidase, the reaction is initiated by reacting the inhibitor (sample) with the α-glycosidase enzyme that competes with […] for the binding site, thus releasing ρ-nitrophenol which was measured in the assay.

O=c1c(O)c(-c2ccc(O)c(O)c2)oc2cc(O)cc(O)c12 [Quercetin, 3,3′,4′,5,7-Pentahydroxyflavone]
radical scavenging activity by dot blot (intensity of yellow spots) [1]: strong radical scavenging activity
IC50 DPPH [2]: 7.76 ± 0.99^FG µg/ml
IC50 ABTS+ [3]: 0.83 ± 0.01^FG µg/ml
xanthine oxidase inhibitory effect (in words) [4]: significant xanthine oxidase inhibitory effect
FRAP antioxidant capacity [5]: 148.12 ± 4.40 AAE μg of ascorbic acid/g
FRAP (AAE μg) [5]: 138.93 ± 6.22^C AAE μg
pIC50 (DPP-4): 4.14

Oc1cc(O)c2c(c1)O[C@H](c1ccc(O)c(O)c1)[C@H](O)C2 [(−)-Epicatechin]
radical scavenging activity by dot blot (intensity of yellow spots) [1]: strong radical scavenging activity
IC50 DPPH [2]: 9.92 ± 0.33^F µg/ml
IC50 ABTS+ [3]: 0.70 ± 0.08^G µg/ml
xanthine oxidase inhibitory effect (in words) [4]: inactive
FRAP antioxidant capacity [5]: 152.14 ± 7.30 AAE μg of ascorbic acid/g
FRAP (AAE μg) [5]: 152.07 ± 1.95^C AAE μg

Oc1cc(O)c2c(c1)O[C@H](c1ccc(O)c(O)c1)[C@@H](O)C2 [(+)-Catechin]
radical scavenging activity by dot blot (intensity of yellow spots) [1]: strong radical scavenging activity
IC50 DPPH [2]: 14.34 ± 1.55^EF µg/ml
IC50 ABTS+ [3]: 0.62 ± 0.05^G µg/ml
xanthine oxidase inhibitory effect (in words) [4]: inactive
FRAP antioxidant capacity [5]: 152.07 ± 1.95 AAE μg of ascorbic acid/g
FRAP (AAE μg) [5]: 148.12 ± 4.40^C AAE μg

COc1c(OC(C)=O)cc(OC(C)=O)c2c(=O)cc(-c3ccccc3)oc12 [Acetate (wogonin), 5,7-Diacetoxy-8-methoxyflavone]
radical scavenging activity by dot blot (intensity of yellow spots) [1]: did not show any spot
IC50 DPPH [2]: >200^A µg/ml
IC50 ABTS+ [3]: >200^A µg/ml
FRAP antioxidant capacity [5]: 5.06 ± 3.24 AAE μg of ascorbic acid/g
FRAP (AAE μg) [5]: 5.06 ± 3.24^G AAE μg
IC50 α-Glucosidase [6]: >100^A µg/mg

O=c1c(O)c(-c2ccc(O)cc2)oc2cc(O)cc(O)c12 [Kaempferol, 4′,3,5,7-Tetrahydroxyflavone]
radical scavenging activity by dot blot (intensity of yellow spots) [1]: strong radical scavenging activity
IC50 DPPH [2]: 10.89 ± 0.86^EF µg/ml
IC50 ABTS+ [3]: 1.36 ± 0.22^FG µg/ml
xanthine oxidase inhibitory effect (in words) [4]: significant xanthine oxidase inhibitory effect
FRAP antioxidant capacity [5]: 265.65 ± 5.46 AAE μg of ascorbic acid/g
FRAP (AAE μg) [5]: 265.65 ± 5.46^A AAE μg
pIC50 (DPP-4): 3.79

COc1cc(OC)c2c(=O)cc(-c3ccccc3)oc2c1OC [Methyl ether (wogonin), 5,7,8-Trimethoxyflavone]
radical scavenging activity by dot blot (intensity of yellow spots) [1]: did not show any spot
IC50 DPPH [2]: >200^A µg/ml
IC50 ABTS+ [3]: >200^A µg/ml
FRAP antioxidant capacity [5]: 1.68 ± 0.18 AAE μg of ascorbic acid/g
FRAP (AAE μg) [5]: 1.68 ± 0.18^G AAE μg
pIC50 (DPP-4): < 3.49

Cc1c(C)c2c(c(C)c1O)CCC(C)(C(=O)O)O2 (stereo not shown) [Trolox, trolox, reference compound]
IC50 ABTS+ [3]: 1.76 ± 0.15^^FG µg/ml

CC(=O)Oc1cc(OC(C)=O)c2c(=O)cc(-c3ccccc3)oc2c1OC(C)=O [Acetate (norwogonin), 5,7,8-Triacetoxyflavone]
radical scavenging activity by dot blot (intensity of yellow spots) [1]: did not show any spot
IC50 DPPH [2]: >100^B µg/ml
IC50 ABTS+ [3]: 78.99 ± 66.5^C µg/ml
FRAP antioxidant capacity [5]: 39.63 ± 1.01 AAE μg of ascorbic acid/g
FRAP (AAE μg) [5]: 39.63 ± 1.01^E AAE μg
pIC50 (DPP-4): < 3.60

O=C1O[C@H]([C@@H](O)CO)C(O)=C1O [Ascorbic acid, ascorbic acid, reference compound]
IC50 DPPH [2]: 4.75 ± 0.91^GHa µg/ml
FRAP antioxidant capacity [5]: 114.58 AAE μg of ascorbic acid/g
FRAP (AAE μg) [5]: 114.58 ± 0.27^Da AAE μg

O=c1cc(-c2ccc(O)cc2)oc2c(O)c(O)cc(O)c12 [Isoscutellarein, 4′,5,7,8-Tetrahydroxyflavone]
radical scavenging activity by dot blot (intensity of yellow spots) [1]: strong radical scavenging activity
IC50 DPPH [2]: 5.23 ± 0.53^GHa µg/ml
IC50 ABTS+ [3]: 1.73 ± 0.06^FG µg/ml
xanthine oxidase inhibitory effect (in words) [4]: low xanthine oxidase inhibitory activity
pIC50 ([4]; xanthine oxidase inhibition, 295 nm, mean ± SEM (n = 3), NA: not active): < 3.46
FRAP (AAE μg) [5]: 262.91 ± 4.99^A AAE μg
pIC50 (DPP-4): 4.11
